Like-named read-outs stand apart in the source and are kept apart here.
How the values were obtained:
GPR139 = target: T1, GPR139 (Homo sapiens, UniProt Q6DWJ6); assay: GPR139 Agonist titration / agonist counterscreen assay (calcium detection, HEK-GPR139 cells); type: cell-based; set-up: expressed in transfected cells; host or cells: HEK Aequorin cells, Maxcyte transient transfection; settings: GPR139 Agonist Activity; for Averaged Max % Response (±St. Dev.): activity relative to known control; for EC50: read-out: EC50
T1 sequence (Q6DWJ6 1-353): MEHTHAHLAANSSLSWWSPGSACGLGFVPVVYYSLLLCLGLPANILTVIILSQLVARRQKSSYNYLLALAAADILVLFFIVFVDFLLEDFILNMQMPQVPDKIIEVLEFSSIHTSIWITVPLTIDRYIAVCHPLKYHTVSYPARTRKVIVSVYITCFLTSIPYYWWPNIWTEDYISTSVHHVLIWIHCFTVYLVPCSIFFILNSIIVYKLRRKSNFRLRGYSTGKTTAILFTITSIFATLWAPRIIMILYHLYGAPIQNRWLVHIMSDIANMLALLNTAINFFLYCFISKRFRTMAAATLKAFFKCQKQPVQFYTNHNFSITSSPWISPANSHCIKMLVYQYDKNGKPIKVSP
Description: GPR activity was assessed using a calcium detection assay. […] Negative control samples were treated with DMSO. […] Intracellular calcium was measured using Calcium 5.

parental HEK cells = assay: HEK parental Agonist Counterscreen Assay (non-transfected cells); type: cell-based; settings: for Averaged Max % Response (±St. Dev.): activity relative to known control
Description: The high control for the agonist counterscreen was Forskolin not acetylcholine.

[1] = Homo sapiens, HEK293, HEK Agonist Activity, parental non-transfected HEK cells
[2] = values printed in E-notation without unit
[3] = HEK Agonist Activity section of Table 4 (parental HEK counterscreen)
[4] = Homo sapiens, HEK293, HEK Agonist Activity section of Table 4 (parental HEK counterscreen)

Row | Averaged Max % Response (±St. Dev.) (GPR139) [%] | Lipophilic Efficiency (logD) (GPR139; based on logD) | Lipophilic Efficiency (logP) (GPR139; based on logP) | Efficiency Ligand (GPR139; ligand efficiency) | EC50 (GPR139; [2]) [nM] | Hill Slope (GPR139; fitted dose-response curve) | Lipophilic Efficiency (logD) (parental HEK cells; HEK Agonist Activity section) | Lipophilic Efficiency (logP) (parental HEK cells; HEK Agonist Activity section) | Efficiency Ligand (GPR139) | Hill Slope (GPR139) | Lipophilic Efficiency (logD) (GPR139) | Lipophilic Efficiency (logP) (GPR139) | EC50 (GPR139; HEK-GPR139 cells) [nM] | SMILES | Averaged Max % Response (±St. Dev.) (parental HEK cells; HEK Agonist Activity section) [%] | EC50 (parental HEK cells; [4]) [nM] | further results
1 | 100.82 ± 13.50 | 4.27 | 4.27 | 0.34 | – | – | – | – | – | – | – | – | – | O=C(Cn1nc(Cc2ccncc2)c2ccccc2c1=O)NC(O)CCc1ccccc1 (stereo not drawn) [SR-01000134029] | – | – | Lipophilic Efficiency (logD) (parental HEK cells; HEK Agonist Activity): 1.41; Lipophilic Efficiency (logP) (parental HEK cells; HEK Agonist Activity): 1.41; Averaged Max % Response (±St. Dev.) (parental HEK cells; HEK Agonist Activity): 19.31 ± 4.61%; EC50 (parental HEK cells; [1]): > 14100 nM
2 | 114.68 ± 11.76 | 5.27 | 5.24 | 0.54 | < 0.517 | – | – | – | – | – | – | – | – | Cc1cccc(C(=O)NNC(=O)C(C)Oc2ccc(O)cc2O)c1 (stereo not drawn) [SR-01000410744] | – | – | Lipophilic Efficiency (logD) (parental HEK cells; HEK Agonist Activity): 0.98; Lipophilic Efficiency (logP) (parental HEK cells; HEK Agonist Activity): 0.95; Averaged Max % Response (±St. Dev.) (parental HEK cells; HEK Agonist Activity): 17.10 ± 14.93%; EC50 (parental HEK cells; [1]): > 10200 nM
3 | 109.38 ± 5.55 | 5.22 | 5.22 | 0.32 | 147 | 0.54 | 3.21 | 3.20 | – | – | – | – | – | CC1(c2ccc3c(c2)OCO3)NC(=O)N(CC(=O)Nc2ccccc2[N+](=O)[O-])C1=O (stereo not drawn) [SR-01000074154] | 11.86 ± 8.71 | – | EC50 (parental HEK cells; [3]): > 15000 nM
4 | 111.55 ± 2.57 | 4.82 | 4.82 | 0.38 | 47.9 | 0.34 | 2.35 | 2.35 | – | – | – | – | – | COc1ccc(CCC(=O)Nc2ccc(OC)c(N3CCCC3=O)c2)cc1 [SR-01000916271] | 29.38 ± 9.84 | > 14100 | –
5 | 118.40 ± 16.09 | 4.22 | 4.22 | 0.43 | 22.4 | 0.20 | – | – | – | – | – | – | – | CCc1cccc(NC(=O)Cn2ncc3c2-c2ccccc2OC3)c1 [SR-01000098944] | – | – | Lipophilic Efficiency (logD) (parental HEK cells; HEK Agonist Activity): 1.42; Lipophilic Efficiency (logP) (parental HEK cells; HEK Agonist Activity): 1.42; Averaged Max % Response (±St. Dev.) (parental HEK cells; HEK Agonist Activity): 16.33 ± 3.15%; EC50 (parental HEK cells; HEK Agonist Activity, parental non-transfected HEK cells): > 14100 nM
6 | 96.96 ± 1.13 | – | – | – | – | – | 1.97 | 1.97 | 0.34 | 1.43 | 3.26 | 3.26 | 732 | Cc1ccc2c(c1)-c1c(cnn1CC(=O)Nc1ncccc1C)CO2 [SR-01000106321] | 6.49 ± 5.13 | – | EC50 (parental HEK cells; [3]): > 14100 nM
7 | 97.42 ± 13.41 | – | – | – | – | – | 1.47 | 1.47 | 0.32 | 0.90 | 3.07 | 3.07 | 354 | CC(C(=O)NCCn1nnn(-c2ccccc2)c1=O)n1nc2ccccc2n1 (stereo not drawn) [SR-01000373848] | 7.32 ± 0.96 | – | EC50 (parental HEK cells; [3]): > 14100 nM
8 | 111.20 ± 10.15 | 4.02 | 4.02 | 0.38 | – | 0.36 | 2.07 | 2.07 | – | – | – | – | – | C=C(CC1N=CC2=C1c1ccccc1CC2)NCc1ccc(C)cc1 (stereo not drawn) [SR-01000134947] | 1.42 ± 10.91 | > 14100 | –
9 | 107.14 ± 25.50 | 4.24 | 4.24 | 0.34 | 60.3 | 0.74 | 1.87 | 1.87 | – | – | – | – | – | O=C(CCc1nc2cccnc2n1Cc1cccs1)NCc1ccc2c(c1)OCO2 [SR-01000151666] | −3.95 ± 11.76 | > 14100 | –
10 | 88.62 ± 11.28 | 3.55 | 3.54 | 0.39 | 98.6 | 0.94 | 1.37 | 1.37 | – | – | – | – | – | O=C(CCCOc1ccc(Cl)cc1Cl)NNC(=O)Cc1ccccc1 [SR-01000067982] | 10.05 ± 3.22 | > 14800 | –
11 | 93.18 ± 13.55 | – | – | – | – | – | 1.40 | 1.38 | 0.33 | 1.11 | 2.85 | 2.82 | 508 | COc1ccc(C)cc1NC(=O)NNC(=O)C(C)Oc1ccc(F)cc1Cl (stereo not drawn) [SR-01000277633] | −5.71 ± 6.76 | > 14100 | –
12 | 105.90 ± 33.97 | – | – | – | – | – | 0.38 | 0.38 | 0.38 | 0.88 | 2.10 | 2.10 | 313 | COc1ccc(NC(=O)NC(O)(O)c2cccc(C(C)=O)c2)cc1 [SR-01000428888] | −2.45 ± 12.32 | > 16400 | –
13 | 102.46 ± 8.64 | 3.78 | 3.77 | 0.30 | 210 | 0.56 | 1.96 | 1.94 | – | – | – | – | – | N#C/C(=C/c1ccc(CNS(=O)(=O)c2ccccc2)o1)C(=O)NCCc1ccccc1 [SR-01000318079] | 11.69 ± 6.13 | – | EC50 (parental HEK cells; [3]): > 14100 nM
14 | 102.55 ± 5.37 | 4.55 | 4.55 | 0.38 | 22.8 | 0.67 | – | – | – | – | – | – | – | CCCn1c(CCC(=O)NCCc2ccc(OCC)cc2)nc2cccnc21 [SR-01000077930] | – | – | Lipophilic Efficiency (logD) (parental HEK cells; HEK Agonist Activity): 1.76; Lipophilic Efficiency (logP) (parental HEK cells; HEK Agonist Activity): 1.76; Averaged Max % Response (±St. Dev.) (parental HEK cells; HEK Agonist Activity): 1.00 ± 2.79%; EC50 (parental HEK cells; [1]): > 14100 nM
15 | 100.11 ± 8.55 | – | – | – | – | – | 2.04 | 2.04 | 0.32 | 1.37 | 3.64 | 3.64 | 355 | CSc1ccc(CCNC(=O)Cn2ncc3c(=O)oc4ccccc4c32)cc1 [SR-01000105999] | 4.15 ± 6.01 | > 14100 | –
16 | 120.81 ± 8.57 | 4.01 | 4.00 | 0.43 | 12 | 1.00 | – | – | – | – | – | – | – | COc1ccccc1NC(=O)NNC(=O)CSc1cc(C)c(Br)cc1C [SR-01000061624] | – | – | Lipophilic Efficiency (logD) (parental HEK cells; HEK Agonist Activity): 0.94; Lipophilic Efficiency (logP) (parental HEK cells; HEK Agonist Activity): 0.93; Averaged Max % Response (±St. Dev.) (parental HEK cells; HEK Agonist Activity): 13.43 ± 5.07%; EC50 (parental HEK cells; [1]): > 14100 nM
17 | 147.35 ± 21.79 | 4.50 | 4.50 | 0.39 | 62.9 | 0.70 | 2.15 | 2.15 | – | – | – | – | – | COc1cc(C(=O)NCCn2ccc3ccccc32)cc(OC)c1OC [SR-01000124399] | −5.54 ± 8.42 | > 14100 | –
18 | 110.81 ± 5.15 | – | – | – | – | – | 1.92 | 1.92 | 0.28 | 1.73 | 3.34 | 3.33 | 537 | O=C(Cn1nc(Cc2ccncc2)c2ccccc2c1=O)N1CCCc2ccccc21 [SR-01000151917] | 10.70 ± 4.71 | > 14100 | –
19 | 90.74 ± 17.54 | – | – | – | – | – | 1.59 | 1.59 | 0.37 | 2.04 | 3.13 | 3.13 | 401 | O=C(CCc1ccccc1)NNC(=O)C12CC3CC(CC(C3)C1)C2 [SR-01000314474] | −0.07 ± 5.01 | > 14100 | –

Source: patent US20250099420A1, “SMALL MOLECULE MODULATORS OF GPR139 COMPLEX” (University of Florida Research Foundation, Incorporated, priority 2022, published 2025)
